Reference: PMC11561307, “Ultra-inert lanthanide chelates as mass tags for multiplexed bioanalysis” (Nature Communications, 2024)

Tests used:
[1] = Epimerization of BocCys{Lu} diastereomers followed by 1H NMR; format: physicochemical; details: Supp. Fig. 22B, chirality inversion
Description: The ClickZip chelates are inherently chiral, with defined rotation of the pendant arms (Λ or Δ) and of the four ethylene units in the cyclen ring (λλλλ or δδδδ), analogous to the DOTA system[15],[27],[34]. However, in contrast to DOTA, they only adopt enantiomeric Λλλλλ and Δδδδδ forms with twisted-square antiprismatic (TSA) arrangements (Fig. 4). To probe whether these enantiomers can interconvert, we modified {Lu} with L-cysteine residues to produce a pair of distinguishable diastereomers. […] The enantiomers of {M} can thus be regarded either as one or two compounds, depending on the time scale.
Fig. 4 Chirality of ClickZip chelates. Inherent chirality of the molecules is given by rotation of the pendant arms (Λ or Δ) and of the four ethylene units in the cyclen ring (λλλλ or δδδδ). In theory, four isomers are possible: two twisted square antiprismatic (TSA) enantiomers (Λλλλλ and Δδδδδ), and two square antiprismatic (SA) enantiomers (Δλλλλ and Λδδδδ). The ClickZip chelates exclusively adopt the TSA arrangements Λλλλλ and Δδδδδ, which were observed together in all solid-state structures as well as in solution. These two forms interconvert on the time scale of hours at 37 °C (Supplementary Fig. 22). Both enantiomers shown here were found in the crystal structure of [{Lu}]^+[ClO4]^−·5H2O. Thermal ellipsoids were set at 50% probability.
Supplementary Fig. 97. Synthesis of BocCys {Lu} and its epimer separation. In a glass vial (4 mL), [Cl{Lu}] +[T FA ]−·5.1H2O (4.0 mg; 4.2 µmol; 1.0 equiv.) was dissolved in DMSO (160 µL) followed by addition of N-Boc-cysteine (200 mM in DMSO; 31 µL; 6.2 µmol; 1.5 equiv.) and DIPEA (7.3 µL; 42 µmol; 10 equiv.) and the resulting solution was stirred for 16 h at 40 °C. Mixture (containing racemic mixture of BocCys {Lu} epimers) was then diluted with DMSO (0.5 mL) and filtered through syringe microfilter (RC). Filtrate was then directly purified by preparative HPLC […]
Fractions with epimer A (front part of the first eluting peak) and B (latter part of the second eluting peak) were quickly freezed and directly lyophilized. The resulting solids were dissolved in 500 μL of deuterated 50 mM MOPS/NaOD buffer (formal pH 7.4; obtained from MOPS/NaOH buffer of such pH by multiple evaporation/D2O resupply cycles). Epimer A (obtained in slightly higher epimeric purity than epimer B) was used for continuous 1H NMR epimerization study at 37 °C (Supplementary Fig. 22) while epimer B was incubated concurrently under identical conditions on heated magnetic stirrer. Conversion: ≥95% (based on Cl {Lu}).

[2] = Hydrolysis of ClickZip conjugates with model hexapeptide in HCl; format: physicochemical; details: 0.5 mM conjugate in 2 M HCl at 80 °C; HPLC 285 nm; Y value after 4 d
Experimental: While the acid-assisted dechelation of lanthanide DOTA chelates proceeds with a rate similar to hydrolysis of a peptide bond[24], the ultra-inert ClickZip chelates of Lu^III and near lanthanides should outlast complete hydrolysis of peptides and proteins. To test this, we prepared model hexapeptide conjugates with two ClickZip derivatives, HO2CPh{Ln} or HO2CBn{Ln}, which differed in their amide linkage to the peptide N-end (Fig. 6). Hydrolysis in 2 M HCl at 80 °C digested the peptide to individual amino acids; the chelates were cleaved from the peptide with no loss of the metal (Lu^III or Tm^III), or only small loss (5% for Y^III chelate).
Fig. 6 ClickZip and peptide bond stability comparison. Hydrolysis of ClickZip conjugates with model hexapeptide AYFHVG-NH2 connected by either aromatic or aliphatic amide bonds in strong acid. Conditions: 0.5 mM {Ln}PhCO-AYFHVG-NH2 or {Ln}BnCO-AYFHVG-NH2 in 2 M HCl at 80 °C. Analysis: λ = 285 nm (HPLC, H2O–MeCN, formic acid additive). […] The hydrolysis is faster for {Ln}BnCO-AYFHVG-NH2 species connected to the peptide via aliphatic amide moiety (n = 1) where HO2CBn{Ln} is formed quantitatively after 1 d. […] Nevertheless, prolonged reaction time led to quantitative formation of HO2CPh{Ln}. […]

Molecule: O=C(CN1CC2CC(=O)Nc3cccc1c32)Nc1ccc2c(c1)C[C@]1(C2)C(=O)Nc2ncccc21 (single isomer, unassigned) [epimer A]
- abundance, % of epimer ([1]; 0.757 h): 89.6%
- abundance, % of epimer ([1]; 0.913 h): 83.6%
- abundance, % of epimer ([1]; 1.220 h): 84.0%
- abundance, % of epimer ([1]; 1.376 h): 90.7%
- abundance, % of epimer ([1]; 1.532 h): 83.1%
- abundance, % of epimer ([1]; 1.735 h): 83.8%
- abundance, % of epimer ([1]; 1.891 h): 74.9%
- abundance, % of epimer ([1]; 2.467 h): 74.2%
- abundance, % of epimer ([1]; 2.641 h): 78.5%
- abundance, % of epimer ([1]; 2.985 h): 70.9%
- abundance, % of epimer ([1]; 3.611 h): 62.0%
- abundance, % of epimer ([1]; 4.238 h): 64.6%
- abundance, % of epimer ([1]; 4.864 h): 63.0%
- abundance, % of epimer ([1]; 5.489 h): 63.7%
- abundance, % of epimer ([1]; 6.704 h): 52.8%
- abundance, % of epimer ([1]; 7.918 h): 58.7%
- abundance, % of epimer ([1]; 9.132 h): 55.2%
- abundance, % of epimer ([1]; 10.346 h): 50.5%
- abundance, % of epimer ([1]; 11.560 h): 49.5%
- abundance, % of epimer ([1]; 12.775 h): 50.6%
- abundance, % of epimer ([1]; 13.988 h): 49.2%
- abundance, % of epimer ([1]; 17.779 h): 50.3%

Molecule: {Y}PhCO-AYFHVG-NH2 [model hexapeptide conjugate with {Y} tag, aromatic amide]
- loss (leak) of metal ion during hydrolysis of hexapeptide conjugate [2]: ~ 5%
